Target: T1, mAChR M1 (UniProt P11229)
T1 sequence (P11229 1-460): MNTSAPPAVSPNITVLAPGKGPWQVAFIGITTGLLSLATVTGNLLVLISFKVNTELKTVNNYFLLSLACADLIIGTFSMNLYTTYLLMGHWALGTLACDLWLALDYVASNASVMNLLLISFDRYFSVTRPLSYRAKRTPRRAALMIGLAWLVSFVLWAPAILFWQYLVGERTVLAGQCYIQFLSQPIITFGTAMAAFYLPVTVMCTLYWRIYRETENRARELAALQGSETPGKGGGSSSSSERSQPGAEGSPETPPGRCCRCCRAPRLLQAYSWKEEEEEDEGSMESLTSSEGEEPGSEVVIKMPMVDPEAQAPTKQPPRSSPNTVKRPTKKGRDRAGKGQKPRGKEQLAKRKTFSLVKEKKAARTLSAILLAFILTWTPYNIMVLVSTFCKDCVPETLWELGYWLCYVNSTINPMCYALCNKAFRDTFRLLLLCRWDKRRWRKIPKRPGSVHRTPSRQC
Test: mAChR M1 cell-based functional assay (calcium mobilization, antagonist mode)
Details: for Remaining Activity (%): dash = baseline or about zero remaining activity (table footnote); for IC50: concentration of antagonist decreasing calcium flux by 50%, EC80 acetylcholine response, CHO-K1 cells expressing mAChR M1, read-out: Potency (IC50)
Description: Chinese hamster ovary (CHO-K1) cells stably expressing rat (r)M1 were purchased from the American Type Culture Collection and cultured according to their indicated protocol. CHO cells stably expressing human (h)M2, hM3, and hM5 were described previously (Levey, et al., 1991); hM1 and hM4 cDNAs were purchased from Missouri S&T cDNA Resource; rM4 cDNA was provided by T. I. Bonner (National Institutes of Health, Bethesda, Md.). rM2 and rM3 were cloned from a rat brain cDNA library and sequence verified. hM1, rM2, rM3, hM4, and rM4 cDNAs were used to stably transfect CHO-K1 cells purchased from the American Type Culture Collection using Lipofectamine-2000. To make stable rM2, hM2, rM3, hM4, and rM4 cell lines for use in calcium mobilization assays, these cells also were stably transfected with a chimeric G-protein (Gqi5) (provided by B. R. Conklin, University of California, San Francisco) using Lipofectamine 2000. rM1, hM1, rM3, hM3, rM5, and hM5 cells were grown in Ham's F-12 medium containing 10% heat-inactivated fetal bovine serum (FBS), 20 mM HEPES, and 50 μg/mL G418 sulfate. rM2-Gqi5, hM2-Gqi5, and hM4-Gqi5 cells were grown in the same medium also containing 500 μg/mL Hygromycin B. Stable rM4-Gqi5 cells were grown in DMEM containing 10% heat-inactivated FBS, 20 mM HEPES, 400 μg/mL G418 sulfate, and […].
For high throughput measurement of antagonist inhibited increases in intracellular calcium, CHO-K1 cells stably expressing muscarinic receptors were plated in growth medium lacking G418 and hygromycin at 15,000 cells/20 μL/well in Greiner 384-well black-walled, tissue culture (TC)-treated, clear-bottom plates (VWR). Cells were incubated overnight at 37° C. and 5% CO2. The next day, cells were washed using an ELX 405 (BioTek) with four washes (80 μL) of assay buffer then aspirated to 20 μL. Next, 20 μL of 16 μM Fluo-4/acetoxymethyl ester (Invitrogen, Carlsbad, Calif.) prepared as a 2.3 mM stock in DMSO and mixed in a 1:1 ratio with 10% (w/v) Pluronic F-127 and diluted in assay buffer was added to the wells and the cell plates were incubated for 50 min at 37° C. and 5% CO2. Dye was removed by washing with the ELX 405 (four 80 μL washes of assay buffer) then aspirated to 20 μL. Compound master plates were formatted in an 11 point CRC format (1:3 dilutions) in 100% DMSO with a starting concentration of 10 mM using the BRAVO liquid handler (Agilent). Test compound CRCs were then transferred to daughter plates (240 nL) using the Echo acoustic plate reformatter (Labcyte, Sunnyvale, Calif.) and then diluted into assay buffer (40 μL) to a 2× stock using a Thermo Fisher Combi (Thermo Fisher Scientific, Waltham, Mass.).
Calcium flux was measured using the Functional Drug Screening System (FDSS) 6000 (Hamamatsu Corporation, Tokyo, Japan) as an increase in the fluorescent static ratio. Compounds were applied to cells (20 μL, 2×) using the automated system of the FDSS 6000 at 4 s into the 300 s protocol and the data were collected at 1 Hz. At 144 s into the 300 s protocol, 10 μL of an EC20 concentration of the muscarinic receptor agonist acetylcholine was added (5×), followed by the addition of 12 μL an EC80 concentration of acetylcholine at the 230 s time point (5×). Agonist activity was analyzed as a concentration-dependent increase in calcium mobilization upon compound addition. Positive allosteric modulator activity was analyzed as a concentration-dependent increase in the EC20 acetylcholine response. Antagonist activity was analyzed as a concentration-dependent decrease in the EC80 acetylcholine response. Concentration-response curves were generated using a four-parameter logistical equation in XLfit curve fitting software (IDBS, Bridgewater, N.J.) for Excel (Microsoft, Redmond, Wash.) or Prism (GraphPad Software, Inc., San Diego, Calif.).
The calcium mobilization assay was used to determine “potency”.

IC50 [nM] | SMILES | Remaining Activity (%)
– | O=C(C1CN(S(=O)(=O)c2cccc3cnccc23)C1)N1CCN(c2ccncc2)CC1 [B1] | — (Unless otherwise indicated with a numerical value, the percent remaining activity is baseline or about zero, i.e. as indicated by “—”)
48 | O=C(C1CN(S(=O)(=O)c2cccc3cnccc23)C1)N1CCN(c2ccnc(Cl)c2)CC1 [B2] | — (Unless otherwise indicated with a numerical value, the percent remaining activity is baseline or about zero, i.e. as indicated by “—”)
57 | O=C(C1CN(S(=O)(=O)c2cccc3cnccc23)C1)N1CC2CN(c3ccncc3)CC2C1 (stereo not drawn) [B3] | — (Unless otherwise indicated with a numerical value, the percent remaining activity is baseline or about zero, i.e. as indicated by “—”)
87 | O=C(C1CN(S(=O)(=O)c2cccc3cnccc23)C1)N1CC2CN(c3ccccn3)CC2C1 (stereo not drawn) [B4] | — (Unless otherwise indicated with a numerical value, the percent remaining activity is baseline or about zero, i.e. as indicated by “—”)
95 | O=C(C1CN(S(=O)(=O)c2ccc3c(c2)CCO3)C1)N1CCN(c2ccncc2)CC1 [B5] | — (Unless otherwise indicated with a numerical value, the percent remaining activity is baseline or about zero, i.e. as indicated by “—”)
120 | Cc1cc(N2CCN(C(=O)C3CN(S(=O)(=O)c4cccc5cnccc45)C3)CC2)ccn1 [B6] | — (Unless otherwise indicated with a numerical value, the percent remaining activity is baseline or about zero, i.e. as indicated by “—”)
– | Cc1cc(S(=O)(=O)N2CC(C(=O)N3CCN(c4ccncc4)CC3)C2)cnc1Cl [B7] | — (Unless otherwise indicated with a numerical value, the percent remaining activity is baseline or about zero, i.e. as indicated by “—”)
290 | O=C(C1CN(S(=O)(=O)c2cccc3nonc23)C1)N1CCN(c2ccncc2)CC1 [B8] | — (Unless otherwise indicated with a numerical value, the percent remaining activity is baseline or about zero, i.e. as indicated by “—”)
– | O=C(C1CN(S(=O)(=O)c2ccc3c(c2)OCO3)C1)N1CCN(c2ccncc2)CC1 [B9] | — (Unless otherwise indicated with a numerical value, the percent remaining activity is baseline or about zero, i.e. as indicated by “—”)
350 | O=C(C1CN(S(=O)(=O)c2cccnc2)C1)N1CCN(c2ccncc2)CC1 [B10] | — (Unless otherwise indicated with a numerical value, the percent remaining activity is baseline or about zero, i.e. as indicated by “—”)
350 | O=C(C1CN(S(=O)(=O)c2cccc3nonc23)C1)N1CCN(c2ccc(Br)cn2)CC1 [B11] | — (Unless otherwise indicated with a numerical value, the percent remaining activity is baseline or about zero, i.e. as indicated by “—”)
350 | O=C(C1CN(S(=O)(=O)c2ccc(Cl)nc2)C1)N1CCN(c2ccncc2)CC1 [B12] | — (Unless otherwise indicated with a numerical value, the percent remaining activity is baseline or about zero, i.e. as indicated by “—”)
390 | Cc1cnccc1N1CCN(C(=O)C2CN(S(=O)(=O)c3cccc4cnccc34)C2)CC1 [B13] | — (Unless otherwise indicated with a numerical value, the percent remaining activity is baseline or about zero, i.e. as indicated by “—”)
460 | Cc1cc(N2CCN(C(=O)C3CN(S(=O)(=O)c4cccc5cnccc45)C3)CC2)cc(C)n1 [B14] | — (Unless otherwise indicated with a numerical value, the percent remaining activity is baseline or about zero, i.e. as indicated by “—”)
– | O=C(C1CN(S(=O)(=O)c2ccc3ncccc3c2)C1)N1CCN(c2ccncc2)CC1 [B15] | — (Unless otherwise indicated with a numerical value, the percent remaining activity is baseline or about zero, i.e. as indicated by “—”)
620 | O=C(C1CN(S(=O)(=O)c2cccc(Cl)c2Cl)C1)N1CCN(c2ccncc2)CC1 [B16] | — (Unless otherwise indicated with a numerical value, the percent remaining activity is baseline or about zero, i.e. as indicated by “—”)
640 | O=C(C1CN(S(=O)(=O)c2cccc3c(Cl)nccc23)C1)N1CCN(c2ccncc2)CC1 [B17] | — (Unless otherwise indicated with a numerical value, the percent remaining activity is baseline or about zero, i.e. as indicated by “—”)
740 | Cn1cc(S(=O)(=O)N2CC(C(=O)N3CCN(c4ccncc4)CC3)C2)cn1 [B18] | — (Unless otherwise indicated with a numerical value, the percent remaining activity is baseline or about zero, i.e. as indicated by “—”)
780 | O=C(C1CN(S(=O)(=O)c2cccc3cnc(Cl)cc23)C1)N1CCN(c2ccncc2)CC1 [B19] | — (Unless otherwise indicated with a numerical value, the percent remaining activity is baseline or about zero, i.e. as indicated by “—”)
– | O=C(C1CN(S(=O)(=O)c2cccc3cnccc23)C1)N1CCN(c2ccncn2)CC1 [B20] | — (Unless otherwise indicated with a numerical value, the percent remaining activity is baseline or about zero, i.e. as indicated by “—”)
860 | O=C(C1CN(S(=O)(=O)c2cccnc2Cl)C1)N1CCN(c2ccncc2)CC1 [B21] | — (Unless otherwise indicated with a numerical value, the percent remaining activity is baseline or about zero, i.e. as indicated by “—”)
– | Cc1cc2c(S(=O)(=O)N3CC(C(=O)N4CCN(c5ccncc5)CC4)C3)cccc2cn1 [B22] | — (Unless otherwise indicated with a numerical value, the percent remaining activity is baseline or about zero, i.e. as indicated by “—”)
1500 | O=C(C1CN(S(=O)(=O)c2cccc(F)c2)C1)N1CCN(c2ccncc2)CC1 [B23] | — (Unless otherwise indicated with a numerical value, the percent remaining activity is baseline or about zero, i.e. as indicated by “—”)
1500 | O=C(C1CN(S(=O)(=O)c2ccc3occc3c2)C1)N1CCN(c2ccncc2)CC1 [B24] | — (Unless otherwise indicated with a numerical value, the percent remaining activity is baseline or about zero, i.e. as indicated by “—”)
1900 | Cc1noc(C)c1S(=O)(=O)N1CC(C(=O)N2CCN(c3ccncc3)CC2)C1 [B25] | — (Unless otherwise indicated with a numerical value, the percent remaining activity is baseline or about zero, i.e. as indicated by “—”)
– | O=C(C1CN(S(=O)(=O)c2cccc3ncccc23)C1)N1CCN(c2ccncc2)CC1 [B26] | — (Unless otherwise indicated with a numerical value, the percent remaining activity is baseline or about zero, i.e. as indicated by “—”)

Source: patent publication US8697888B2, “Substituted (1-(methylsulfonyl)azetidin-3-yl)(heterocycloalkyl)methanone analogs as antagonists of muscarinic acetylcholine M1 receptors” (Vanderbilt University, priority 2012, dated 2014)
